These results are taken from PubChem BioAssay AID844 (SRMLSC, 2007).

The assay has as its system MRP1 cells, doxorubicin viability shift, 10 uM compound. Kind of assay: viability protection against doxorubicin, MRP-1 line – cell-based, doxorubicin EC50 shift, dose response (AID 844). The following applies: for EC50: measured here: doxorubicin EC50 with compound.

Molecules are shown by their SMILES. Activity calls are given as the source filed them. No rule for the calls is given here.

In the case of `CCc1nnc(NC(=O)[C@@H](NC(=O)c2cccc(S(=O)(=O)N(CC)CC)c2)C(C)C)s1`, the fold increase in Dox EC50 is 0.4 (inactive) and the EC50 was found to be 2.18 µM.

Take `Fc1ccc(N2CCN(c3ncnc4c3nnn4Cc3ccccc3Cl)CC2)cc1`: the fold increase in Dox EC50 was 0.86 (inactive) and the EC50 was 4.67 µM.

For `COc1ccc(CNc2nc3c(c(=O)n(Cc4ccc(Cl)cc4)c(=O)n3C)n2C)cc1`, the fold increase in Dox EC50 is 0.83 (inactive) and the concentration for a half-maximal effect (EC50) came out at 4.48 µM.

Take `CC(=O)/C(C#N)=C1\NC(=O)C(Cc2ccc(C)c(C)c2)S1` (stereo not given): the fold increase in Dox EC50 is 1.19 (inactive) and the EC50 was 6.44 µM.

On to `N#Cc1nc(COc2ccc(Br)cc2)oc1N1CCCC1`, for which the fold increase in Dox EC50 is 1.26 (inactive) and the concentration for a half-maximal effect (EC50) was determined as 6.8 µM.

Regarding `Cc1cccc(-c2cc3nc(C)cc(N4CC(C)CC(C)C4)n3n2)c1` (stereo not given), the fold increase in Dox EC50 was 0.49 (inactive) and the EC50 was 2.65 µM.

For the compound `Cc1ccc(C(=O)COc2ccccc2-c2ccccc2)cc1C`, the fold increase in Dox EC50 is 0.9 (inactive) and the EC50 stood at 4.85 µM.

With `Cc1cc(C(=O)Nc2nnc(C(F)(F)F)s2)no1`, the fold increase in Dox EC50 is 1.51 and the EC50 was determined as 8.14 µM.

With `CCN(CC)S(=O)(=O)c1cc(NC(=O)C(=O)c2c(-c3ccccc3)cc3ccccn23)ccc1C`, the fold increase in Dox EC50 is 1.28 (inactive) and the EC50 worked out at 6.91 µM.

For the compound `CCOc1ccc(Cn2nnc(C(=O)NCCc3ccccc3)c2N)cc1`, the fold increase in Dox EC50 is 1.05 (inactive) and the EC50 came out at 5.65 µM.

For the compound `O=C1CSC(=NC(=O)c2ccccc2)N1`, the fold increase in Dox EC50 is 0.7 (inactive) and the EC50 turned out to be 3.79 µM.

For `COc1ccc(Cn2c(O)c(C=Nc3ccc(OC)cc3)c3ccccc3c2=O)cc1`, the fold increase in Dox EC50 is 1.34 (inactive) and the EC50 came out at 7.24 µM.

Regarding `COc1cccc(/C=N/N2C(=O)CSC2=S)c1O`, the fold increase in Dox EC50 is 1.31 (inactive) and the EC50 worked out at 7.08 µM.

With `O=c1[nH]c(C2CCCN(S(=O)(=O)c3ccccc3)C2)nc2c1nnn2Cc1ccccc1` (stereo not given), the fold increase in Dox EC50 is 0.11 (inactive) and the EC50 worked out at 0.603 µM.

With `CCC(Sc1nc2ccccc2s1)C(=O)Nc1nnc(C)s1` (stereo not given), the fold increase in Dox EC50 is 1.04 (inactive) and the 50% effective concentration (EC50) was found to be 5.61 µM.

Regarding `Nc1ccc(C(=O)OCC(=O)N2c3ccccc3Sc3ccccc32)cc1[N+](=O)[O-]`, the fold increase in Dox EC50 was 1.29 (inactive) and the EC50 was determined as 6.97 µM.

As for `COc1ccc(N2C(=O)C(CC(=O)Nc3ccc(F)cc3)N(CCc3cccs3)C2=O)cc1` (stereo not given), the fold increase in Dox EC50 was 0.81 (inactive) and the EC50 came out at 4.38 µM.

`O=C(CC(NC(=O)C(F)(F)F)c1ccccc1)Nc1nnc(CCc2ccccc2)s1` (stereo not given): the fold increase in Dox EC50 is 1.85 and the EC50 turned out to be 9.97 µM.

`N#CCn1nnc(-c2ccc3c(c2)OCO3)n1`: the fold increase in Dox EC50 is 1.01 (inactive) and the EC50 was 5.43 µM.

For `O=C(c1ccco1)N1CCN(c2nc(C3CC3)nc3c2nnn3Cc2ccccc2Cl)CC1`, the fold increase in Dox EC50 was 0.32 (inactive) and the EC50 was found to be 1.7 µM.

With `Cc1ccc(OCc2nnc(SCC(=O)N3c4ccccc4Sc4ccc(Cl)cc43)o2)cc1`, the fold increase in Dox EC50 is 0.85 (inactive) and the EC50 worked out at 4.57 µM.

With `CC(=O)N1CCN=C1SCc1ccc(Cl)cc1`, the fold increase in Dox EC50 is 1.06 (inactive) and the EC50 came out at 5.75 µM.

As for `COc1ccc(C2=NN(C(=O)c3cccs3)C(c3ccc(OC)cc3)C2)cc1` (stereo not given), the fold increase in Dox EC50 was 1.06 (inactive) and the EC50 was 5.7 µM.

As to `CCOC(=O)C(C(=O)Nc1nc2ccccc2s1)C1CCCCC1` (stereo not given), the fold increase in Dox EC50 is 1 (inactive) and the EC50 is 5.39 µM.

For `Cc1nc(=O)c(-c2ccccc2)c(C)n1-c1ccc(O)cc1`, the fold increase in Dox EC50 was 1.32 (inactive) and the half-maximal effective concentration (EC50) came out at 7.13 µM.
